# According to article PMC8125686, “Molecular Basis of Multiple Mitochondrial Dysfunctions Syndrome 2 Caused by CYS59TYR BOLA3 Mutation” (International Journal of Molecular Sciences, 2021):
# Target: T1, NFU1 (Homo sapiens, UniProt Q9UMS0)
# T1 sequence (Q9UMS0 10-254): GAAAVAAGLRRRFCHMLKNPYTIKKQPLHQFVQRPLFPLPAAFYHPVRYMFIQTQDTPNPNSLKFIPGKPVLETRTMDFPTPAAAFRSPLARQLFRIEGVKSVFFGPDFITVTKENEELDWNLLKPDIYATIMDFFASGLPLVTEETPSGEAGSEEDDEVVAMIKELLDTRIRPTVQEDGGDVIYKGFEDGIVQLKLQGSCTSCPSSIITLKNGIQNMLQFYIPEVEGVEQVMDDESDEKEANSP
# Assay: 1H-15N HSQC NMR of cluster assembly on 15N-labelled apo NFU1
# Type: binding
# Conditions: cluster donor [2Fe-2S] C59Y BOLA3-GLRX5 at 1:1; 5 mM DTT; 5 mM GSH; anaerobic
smiles,measurement,value
[S]12[Fe]3[S]4[Fe]1[S]1[Fe]2[S]3[Fe]41 [[4Fe–4S]2+ cluster],amount of [4Fe-4S] NFU1 formed in the final mixture,25%
